What was measured:
[1] = tested on: cultured PGCLC; assay: Immunofluorescence analysis of STRA8, SCP3, DDX4 in cultured PGCLC; assay type: cell-based, mouse; details: cultured PGCLC, c9; BMP4, 5, 7 combined with RA; BMS493 with BMP2; LDN193189 with RA and BMP2
Method: (§1) The PGC/PGCLC expansion medium was constituted of 10% KSR, 2.5% FBS, 0.1 mM NEAA, 1 mM sodium pyruvate, 2 mM L-glutamine, 0.1 mM 2-mercaptoethanol, 100 U/ml penicillin, 0.1 mg/ml […] streptomycin, […] forskolin, and 10 μM rolipram. The entire medium was changed every 2 days from c3. Cytokines/compounds for induction of female fate were provided from c3 to the end of culture. RA and BMP concentrations used were 100 nM and 300 ng/ml, respectively, unless otherwise specified. Brightfield and fluorescence images were captured using an IX73 inverted microscope (Olympus).
Immunofluorescence (IF) analysis was performed as described previously (Hayashi et al, 2012). The following primary antibodies were used: chicken anti-GFP (ab13970; Abeam), rabbit anti-DDX4 (ab13840; Abeam), mouse anti-DDX4 (ab27591; Abeam), rabbit anti-DAZL (ab34129; Abeam), goat anti-DAZL (sc-27333; Santa Cruz), rabbit anti-STRA8 (ab49602; Abeam), mouse anti-SYCP3 (ab97672; Abeam) and rabbit anti-TEX14 (ab41733; Abeam)IgG. The following secondary antibodies were used: Alexa Fluor 488-goat anti-mouse or chicken IgG; Alexa Fluor 568-goat anti-rabbit IgG and Alexa Fluor 633-goat anti-mouse, anti-chicken IgG; Alexa Fluor 488-donkey anti-mouse IgG; Alexa Fluor 568-donkey anti-rabbit IgG and Alexa Fluor 633-donkey anti-goat IgG. IF images were acquired using a confocal microscope [FV1000 (Olympus) or LSM780 (Zeiss)].

[2] = tested on: PGCLC; assay: CsA or FK506 alone at various concentrations on PGCLC proliferation (fold difference d7/d1); assay type: cell-based, mouse; details: 10, 5, 1, 0 μM, in place of FR10
[3] = tested on: BV (+) d4 PGCLCs; assay: Compound library screening for PGCLC proliferation (BV fluorescence by cell analyzer); assay type: cell-based, mouse; details: 10 μM; day 7 of culture
Method: d4 PGCLC was seeded by FACS on m220-5 feeders in 96-well plates and BV fluorescence was monitored by cell analyzer (Cellavista; SynenTec). Fluorescence photograph for BV was taken by Cellavista cell analyzer with the following settings: 10× objectives; exposure time: 140 μsec; gain: 4×; binning: 4×4; excitation: 500/24 nm; emission: 542/27 nm. BV fluorescence was detected using the following algorithm/attribute parameters: sensitivity: 10; region merging: 200; min. granule intensity: 50; well edge distance: 200; contrast: 1; size: 3,000; intensity: 255; roughness: 500; granularity: 100; granule intensity: 255; granule count: 10,000; longishness: 100; compactness: 1. The value of “cell nucleus” was used for the detection of BV fluorescence.
The compound library was screened at concentrations of 10 μM and 1 μM. […] 200 BV (+) d4 PGCLCs induced from BDF1-2 ESC were seeded in the wells of a 96-well plate, and BV fluorescence was measured on the Cellavista cell analyzer on day 1 of culture (c1), c3, c5 and c7. The value of “cell nucleus” was used for the detection of BV fluorescence. […] For each compound, the fold difference in BV fluorescence between c1 and c7 was calculated for each compound and compounds with a fold difference value exceeding 3SD of the mean of the negative control were identified as those that potentiate PGCLC proliferation.

[4] = tested on: BMP signaling pathway; assay: BMP signaling in PGCLC: pSMAD1/5/8 (Western blot) and Id1/Id2 expression; assay type: cell-based, mouse; details: PGCLC stimulated by RA and BMP2
Method: For Western blot analysis, 5×10^4 cells were lysed in SDS sample buffer [62.5 mM Tris-HCl (pH 6.8), 2% SDS, 10% glycerol, 0.025% bromophenol blue and 0.14 M-mercaptoethanol] at 90° C. for 5 min. For detection of phosphorylated (p)SMAD1/5/8, the cells were treated with PhosSTOP (Roche) and complete protease inhibitor cocktail (Roche) before lysis. The extracted protein was separated by SuperSep Ace 10-20% gel (Wako), blotted on iBlot2 PVDF transfer membrane (Thermo Fisher) by iBlot2 dry blotting system (Thermo Fisher), and incubated with the primary antibody: rabbit anti-STRA8 IgG (ab49405; Abeam), mouse anti-α tubulin (T9026; Sigma-Aldrich), rabbit anti-pSMAD1/5/8 IgG (#9511; CST), or rabbit anti-SMAD1 IgG (#97435 CST). Primary antibodies were detected with goat anti-rabbit IgG or sheep anti-mouse IgG conjugated to HRP (A0545, M8642; Sigma-Aldrich), followed by Chemi-Lumi One Super (Nacalai). Chemiluminescence image acquisition and analysis was performed using the Fusion Solo system and Fusion-Capt software (M & S Instruments).
(§2) qPCR was performed using CFX384 (Bio-Rad) and Power SYBR Green (ABI, Foster City, Calif.) according to the manufacturer's instructions. Template cDNA was prepared as described in the “Transcriptome analysis” section and the primers used are listed in Primers.

[5] = tested on: female germ cell fate in embryos; assay: Administration of LDN193189 to pregnant females, germ cell fate at E14.5; assay type: in vivo, mouse
Method: To administer LDN-193189 to pregnant females (ICR), LDN-193189 (sm10559; Sigma-Aldrich) is dissolved in sterile water, and 2.5 mg LDN-193189 was injected intraperitoneally every 12 hours from E11 to E14 per kg body weight.
as §2

[6] = tested on: d4 PGCLC; assay: Measurement of intracellular cAMP concentration (cAMPGlo Max assay); assay type: cell-based, mouse; details: pretreated 30 min at room temperature
Method: The intracellular cAMP concentration was measured using cAMPGlo Max assay kit (Promega) according to the manufacturer's instructions. A standard curve using purified cAMP was prepared by calculating the Δrelative light unit (ΔRLU) (RLU [0 nM]-RLU [X nM]). For each sample, 1×10^4 d4 PGCLC was pretreated with forskolin and/or rolipram for 30 min at room temperature and the ΔRLU (RLU [untreated sample-RLU [treated sample]) was calculated. An increase in the intracellular cAMP level due to chemical treatments was inferred from the cAMP standard curve. Three biological replicates were analyzed for each sample.

[7] = tested on: d4 PGCLC; assay: Expansion culture of d4 PGCLC on m220-5 feeder (cell number fold increase); assay type: cell-based, mouse; details: 10 μM alone; BVSC BDF1-2; SCF, m220 feeder
Method: Since the m220-5 feeder treated with MMC was vulnerable to forskolin and rolipram, m220-5 cells were subcultured 3 times with both forskolin and rolipram each at 10 μM and adapted to these compounds before MMC treatment (1-2 μg/ml for 2 hr). d4 PGCLC or E9.5 PGC(BDF1×Stella-EGFP) was selected by FACS, and the cells were seeded on m220-5 cells in GMEM medium containing 10% KSR, 0.1 mM NEAA, 1 mM sodium pyruvate, 0.1 mM 2-mercaptoethanol, 100 U/ml penicillin, 0.1 mg/ml streptomycin, 2 mM L-glutamine, 2.5% FCS, 100 ng/ml SCF, 10 μM forskolin, and 10 μM rolipram. Half of the culture medium was changed every 2 days.
Expansion culture of PGC/PGCLC to investigate the combined effect of cyclosporin A (CsA) was performed as in Example [I], except that 5 μM CsA was added to the medium in addition to 10 μM forskolin and 10 μM loripram (FR10).

[8] = tested on: PGCLC induced from BVSCDT ESC(XY); assay: Screening for factors inducing female germ cell fate: DT and BV expression by FACS at c7; assay type: cell-based, mouse; details: added from c3, read at c7; RA 100 nM, cytokines 500 ng/ml; BMPs in combination with RA
Method: as §1
The preparation of d4/c0 PGCLC for FACS is described in “ESC culture/induction and PGCLC induction/culture”. To isolate germ cells in vivo, fetal gonads of BVSC, VR or SG mice were cut and processed for FACS according to the procedure described for d4/c0 PGCLC. Culture PGCLC was also prepared by the same method except that, after dissociation, the cells were washed with 0.1% BSA-DMEM containing 100 μg/ml DNase (Sigma-Aldrich), lysed DNA from dead cells was digested to prevent the formation of cell/debris clumps. Fluorescent activity of BV/SG, SC, or DT/VR was detected with FITC, Horizon V500 or PE-Texas Red channels, respectively. FACS data was analyzed using FlowJo or FACS Diva software package.
In the signal inhibitory experiment, LDN193189 (#04-0074; Stemgent) and BMS493 (B6688; Sigma-Aldrich) dissolved in DMSO were used as ALK2/3 inhibitor and RAR inhibitor, respectively.

CC1(C)CC=C(C#Cc2ccccc2)c2cc(/C=C/c3ccc(C(=O)O)cc3)ccc21 [BMS493]
induction of VR/DDX4 and SCP3 (+) cells (meiotic entry) [1]: abolished upregulation of VR/DDX4 as well as induction of SCP3

C=CC[C@@H]1/C=C(\C)C[C@H](C)C[C@H](OC)[C@H]2O[C@@](O)(C(=O)C(=O)N3CCCC[C@H]3C(=O)O[C@H](/C(C)=C/[C@@H]3CC[C@@H](O)[C@H](OC)C3)[C@H](C)[C@@H](O)CC1=O)[C@H](C)C[C@@H]2OC [FK506, tacrolimus]
proliferative effect on PGCLCs [2]: did not have a proliferative effect

COc1cccc(Nc2c(C(N)=O)cnc3c(C)cc(S(=O)(=O)c4cccc(C(=O)N(C)C)c4)cc23)c1 [GSK256066]
colony formation of BV(+) cells [3]: formation of plural colonies with unique flat morphology

c1ccc2c(-c3cnn4cc(-c5ccc(N6CCNCC6)cc5)cnc34)ccnc2c1 [LDN193189]
pSMAD1/5/8 and Id1, Id2 expression [4]: blocked such effects | induction of VR/DDX4 and SCP3 (+) cells (meiotic entry) [1]: blocked RA- and BMP2-induced VR activation and meiotic entry in a dose-dependent manner | progression to female germ cell fate ([5]; every 12 hr from E11.5 to E14.0, read at E14.5): caused a significant impairment of progression to female germ cell fate | expression of key genes of late PGC/female germ cell development (qPCR) ([5]; female VR(+) cells at E14.5): up-regulated key genes in late PGC/female germplasm development | male germ cell development (qPCR) ([5]; male VR(+) cells at E14.5): unaffected

C=C[C@@]1(C)CC(=O)[C@]2(O)[C@@]3(C)[C@@H](O)CCC(C)(C)[C@@H]3[C@H](O)[C@H](OC(C)=O)[C@@]2(C)O1 [forskolin]
cAMP concentration in PGCLC [6]: about 4 nM/1×10^4 d4 PGCLC

COc1ccc(C2CNC(=O)C2)cc1OC1CCCC1 (centres unmarked) [rolipram]
effect on proliferation of d4 PGCLC (compound alone) [7]: relatively mild | cAMP concentration in PGCLC [6]: about 4 nM/1×10^4 d4 PGCLC

B1: BMP7: bone morphogenetic protein 7 cytokine (R&D Systems) (protein, UniProt P18075 293-431, looked up)
Bone morphogenetic protein 7: STGSKQRSQNRSKTPKNQEALRMANVAENSSSDQRQACKKHELYVSFRDLGWQDWIIAPEGYAAYYCEGECAFPLNSYMNATNHAIVQTLVHFINPETVPKPCCAPTQLNAISVLYFDDSSNVILKKYRNMVVRACGCH
DT and BV expression in BV (+) cells [8]: strongly activated DT and simultaneously down-regulated BV | induction of VR/DDX4 and SCP3 (+) cells (meiotic entry) [1]: able to induce VR/DDX4 and SCP3(+) cells

B2: BMP4: bone morphogenetic protein 4 cytokine (R&D Systems) (protein, UniProt P12644 293-408, looked up)
Bone morphogenetic protein 4: SPKHHSQRARKKNKNCRRHSLYVDFSDVGWNDWIVAPPGYQAFYCHGDCPFPLADHLNSTNHAIVQTLVNSVNSSIPKACCVPTELSAISMLYLDEYDKVVLKNYQEMVVEGCGCR
DT and BV expression in BV (+) cells [8]: strongly activated DT and simultaneously down-regulated BV | induction of VR/DDX4 and SCP3 (+) cells (meiotic entry) [1]: able to induce VR/DDX4 and SCP3(+) cells

B3: BMP5: bone morphogenetic protein 5 cytokine (R&D Systems) (protein, UniProt P22003 317-454, looked up)
Bone morphogenetic protein 5: AANKRKNQNRNKSSSHQDSSRMSSVGDYNTSEQKQACKKHELYVSFRDLGWQDWIIAPEGYAAFYCDGECSFPLNAHMNATNHAIVQTLVHLMFPDHVPKPCCAPTKLNAISVLYFDDSSNVILKKYRNMVVRSCGCH
DT and BV expression in BV (+) cells [8]: strongly activated DT and simultaneously down-regulated BV | induction of VR/DDX4 and SCP3 (+) cells (meiotic entry) [1]: able to induce VR/DDX4 and SCP3(+) cells
